Results as given in US6358885B1, “Substituted phenylheterocyclic herbicides” (Mississippi State University, priority 1992, dated 2002).

Columns and labels:
Experiment in all cases: Test B preemergence/postemergence greenhouse plant response rating 0 to 10
[1] = test system: blackgrass; format: in vivo, Alopecurus myosuroides; conditions: for Plant response rating, Blackgrass: 0 to 10 scale
In short: (§1)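 Both application timings were run together: seeds got compound preemergence, and established seedlings (two to eighteen cm) got it postemergence. Non-phytotoxic solvent carried the chemical. Ratings are visual, versus controls, at twelve to sixteen days.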

[2] = test system: giant foxtail; format: in vivo, Setaria faberii; conditions: 0 to 10 scale
In short: as §1

[3] = test system: soybean; format: in vivo, Glycine max; conditions: 0 to 10 scale
In short: as §1

[4] = test system: velvetleaf; format: in vivo, Abutilon theophrasti; conditions: 0 to 10 scale
In short: as §1

[5] = test system: cheatgrass; format: in vivo, Bromus secalinus; conditions: for Plant response rating, Cheatgrass: 0 to 10 scale
In short: as §1

[6] = test system: lambsquarters; format: in vivo, Chenopodium album; conditions: 0 to 10 scale
In short: as §1

[7] = test system: purple nutsedge; format: in vivo, Cyperus rotundus; conditions: 0 to 10 scale
In short: as §1

[8] = test system: rape; format: in vivo, Brassica napus; conditions: 0 to 10 scale
In short: as §1

[9] = test system: barley; format: in vivo, Hordeum vulgare; conditions: for Plant response rating, Barley: 0 to 10 scale
In short: as §1

[10] = test system: crabgrass; format: in vivo, Digitaria spp.; conditions: for Plant response rating, Crabgrass: 0 to 10 scale
In short: as §1

Compound: CCS(=O)(=O)Oc1cc(-c2nn3c(c2Cl)CCCC3)c(F)cc1Cl [Compound 25]
- Plant response rating (0 to 10 scale), Blackgrass ([1]; POSTEMERGENCE, Rate 50 g/ha): 2
- Plant response rating, Blackgrass ([1]; POSTEMERGENCE, Rate 200 g/ha): 2
- Plant response rating, Blackgrass ([1]; PREEMERGENCE, Rate 50 g/ha): 0
- Plant response rating, Blackgrass ([1]; Rate 200 g/ha, PREEMERGENCE): 3
- Plant response rating, Giant foxtail ([2]; POSTEMERGENCE, Rate 50 g/ha): 3
- Plant response rating, Giant foxtail ([2]; POSTEMERGENCE, Rate 200 g/ha): 4
- Plant response rating, Giant foxtail ([2]; PREEMERGENCE, Rate 50 g/ha): 2
- Plant response rating, Giant foxtail ([2]; Rate 200 g/ha, PREEMERGENCE): 7
- Plant response rating, Soybean ([3]; POSTEMERGENCE, Rate 50 g/ha): 8
- Plant response rating, Soybean ([3]; POSTEMERGENCE, Rate 200 g/ha): 4
- Plant response rating, Soybean ([3]; PREEMERGENCE, Rate 50 g/ha): 0
- Plant response rating, Soybean ([3]; Rate 200 g/ha, PREEMERGENCE): 0
- Plant response rating, Velvetleaf ([4]; POSTEMERGENCE, Rate 50 g/ha): 8
- Plant response rating, Velvetleaf ([4]; POSTEMERGENCE, Rate 200 g/ha): 10
- Plant response rating, Velvetleaf ([4]; PREEMERGENCE, Rate 50 g/ha): 1
- Plant response rating, Velvetleaf ([4]; Rate 200 g/ha, PREEMERGENCE): 10
- Plant response rating (0 to 10 scale), Cheatgrass ([5]; POSTEMERGENCE, Rate 50 g/ha): 3
- Plant response rating, Cheatgrass ([5]; POSTEMERGENCE, Rate 200 g/ha): 3
- Plant response rating, Cheatgrass ([5]; PREEMERGENCE, Rate 50 g/ha): 0
- Plant response rating, Cheatgrass ([5]; Rate 200 g/ha, PREEMERGENCE): 3
- Plant response rating, Lambsquarter ([6]; POSTEMERGENCE, Rate 50 g/ha): 9
- Plant response rating, Lambsquarter ([6]; POSTEMERGENCE, Rate 200 g/ha): 10
- Plant response rating, Lambsquarter ([6]; PREEMERGENCE, Rate 50 g/ha): 9
- Plant response rating, Lambsquarter ([6]; Rate 200 g/ha, PREEMERGENCE): 10
- Plant response rating, Nutsedge ([7]; POSTEMERGENCE, Rate 50 g/ha): 2
- Plant response rating, Nutsedge ([7]; POSTEMERGENCE, Rate 200 g/ha): 8
- Plant response rating, Nutsedge ([7]; PREEMERGENCE, Rate 50 g/ha): 0
- Plant response rating, Nutsedge ([7]; Rate 200 g/ha, PREEMERGENCE): 0
- Plant response rating, Rape ([8]; POSTEMERGENCE, Rate 50 g/ha): 10
- Plant response rating, Rape ([8]; POSTEMERGENCE, Rate 200 g/ha): 10
- Plant response rating, Rape ([8]; PREEMERGENCE, Rate 50 g/ha): 0
- Plant response rating, Rape ([8]; Rate 200 g/ha, PREEMERGENCE): 9
- Plant response rating (0 to 10 scale), Barley ([9]; POSTEMERGENCE, Rate 50 g/ha): 4
- Plant response rating, Barley ([9]; POSTEMERGENCE, Rate 200 g/ha): 5
- Plant response rating, Barley ([9]; PREEMERGENCE, Rate 50 g/ha): 0
- Plant response rating, Barley ([9]; Rate 200 g/ha, PREEMERGENCE): 0
- Plant response rating (0 to 10 scale), Crabgrass ([10]; POSTEMERGENCE, Rate 50 g/ha): 3
- Plant response rating, Crabgrass ([10]; POSTEMERGENCE, Rate 200 g/ha): 2
- Plant response rating, Crabgrass ([10]; PREEMERGENCE, Rate 50 g/ha): 5
- Plant response rating, Crabgrass ([10]; Rate 200 g/ha, PREEMERGENCE): 7
